US10059741B2 (priority 2015, dated 2018)
Where “and” joins values, the source holds several entries; their conditions need not be identical. Equal entries are not always repeated. Where two headings read alike, the source gives them in different places. Bridge positions count the residues as written; N and C are the ends. Square brackets hold non-standard residues; d marks the D form. Peptide text beside a SMILES is read from it. R8 = C=CCCCCCC[C@@](C)(N)C(=O)O; S5 = C=CCCC[C@](C)(N)C(=O)O; Nle = CCCC[C@H](N)C(=O)O

Legend:
[1] = test system: Madin Darby canine kidney (MDCK) cells
[2] = test system: Influenza A H3N2 Influenza A/Brisbane/10/2007; experiment: microbe, parasite or virus in culture; assay type: cell-based, influenza A virus; conditions: Influenza A virus, H3N2, MDCK
[3] = test system: H1N1 California/07/2009; experiment: microbe, parasite or virus in culture; assay type: cell-based, influenza A virus; conditions: for EC50: read-out: EC50 (μM) H1N1 California/07/2009
[4] = test system: Influenza B Brisbane/60/2008; experiment: Cytopathic effect (CPE) inhibition in MDCK cells, neutral red; assay type: cell-based; conditions: Influenza B virus, MDCK; Influenza B Brisbane/60/2008; Neutral Red; read-out: EC50
[5] = test system: H7N9 A/Anhui/1/2013; experiment: microbe, parasite or virus in culture; assay type: cell-based, influenza A virus
[6] = test system: H3N2 Perth/16/2009; experiment: microbe, parasite or virus in culture; assay type: cell-based, influenza A virus
[7] = in vitro; conditions: dog
[8] = test system: influenza virus, various viral strains; experiment: organism not typed; assay type: cell-based
[9] = test system: H1N1 California/07/2009; experiment: microbe, parasite or virus in culture; assay type: cell-based, influenza A virus
[10] = test system: H3N2 Perth/16/2009; experiment: microbe, parasite or virus in culture; assay type: cell-based, influenza A virus; remark: listed apart in the source
[11] = test system: influenza virus, various viral strains; experiment: Influenza antiviral evaluation assay (CPE, neutral red dye uptake) in MDCK cells against various viral strains (Tables 8, 9); assay type: cell-based
[12] = test system: H1N1 A/Brisbane/59/2007; experiment: Cytopathic effect (CPE) inhibition in MDCK cells, neutral red; assay type: cell-based, influenza A virus
[13] = test system: Influenza A H1N1 Influenza A/Texas/4/2009; experiment: microbe, parasite or virus in culture; assay type: cell-based, influenza A virus; conditions: Influenza A virus, H1N1, MDCK
[14] = test system: H5N1 A/Hong Kong/213/2003; experiment: microbe, parasite or virus in culture; assay type: cell-based, influenza A virus
[15] = test system: H5N1 A/Duck/MN/1525/81; experiment: microbe, parasite or virus in culture; assay type: cell-based, influenza A virus; conditions: Influenza A H5N1 Duck/MN/1525/81, Neutral Red
[16] = test system: Influenza A H1N1 Influenza A/California/7/2009; experiment: microbe, parasite or virus in culture; assay type: cell-based, influenza A virus; conditions: Influenza A virus, H1N1, MDCK
[17] = test system: Influenza B/Brisbane/60/2008; experiment: microbe, parasite or virus in culture; assay type: cell-based; conditions: Influenza B virus, MDCK; Influenza B Influenza B/Brisbane/60/2008; CellTiter-Glo
[18] = test system: Influenza B Florida/04/2006; experiment: Cytopathic effect (CPE) inhibition in MDCK cells, neutral red; assay type: cell-based; conditions: Influenza B virus, MDCK; Influenza B Florida/04/2006; Neutral Red; read-out: EC50
[19] = test system: influenza virus, various viral strains; assay type: cell-based; conditions: VYR/Neutral Red
[20] = test system: H1N1 A/Solomon Island/03/2006; assay type: cell-based, influenza A virus; conditions: Influenza A H1N1 A/Solomon Is./3/2006-M; Drug Assay Neutral Red; read-out: EC50
[21] = Influenza A virus, H3N2, MDCK, read-out: EC50 (μM) H3N2 Perth/16/2009
[22] = MDCK, Influenza A H5N1 Duck/MN/1525/81, Visual

NC(=O)c1ncn([C@@H]2O[C@H](CO)[C@@H](O)[C@H]2O)n1 [Ribavirin, reference compound]
CC50 ([1]; MDCK cells, run with Influenza A H5N1 Duck/MN/1525/81, Neutral Red): > 320 µM
CC50 ([1]; MDCK cells, run with Influenza A H5N1 Duck/MN/1525/81, Visual): > 320 µM
CC50 ([1]; MDCK cells, run with Influenza A H5N1 Hong Kong/213/2003, Neutral Red): > 1000 µM
CC50 ([1]; MDCK cells, run with Influenza A H5N1 Hong Kong/213/2003, Visual): > 1000 µM
CC50 ([1]; run with Influenza A H5N1 A/Hong Kong/213/2003, Neutral Red): > 1000 µM
CC50 ([1]; run with Influenza A H5N1 A/Hong Kong/213/2003, Visual): > 1000 µM
CC50 ([1]; run with Influenza A H7N9 A/Anhui/1/2013, Neutral Red): > 1000 µM
CC50 ([1]; run with Influenza A H7N9 A/Anhui/1/2013, Visual): > 1000 µM
EC50 [2]: 2.81 µM
EC90 [2]: 11.8 µM
EC90 ([3]; Influenza A virus, H1N1, MDCK): 5.5 µM
EC50 ([3]; Influenza A virus, H1N1, MDCK): 1.5 to 10 µM
EC50 [4]: 5.6 µM
EC50 ([5]; Influenza A virus, H7N9, MDCK, Influenza A H7H9 A/Anhui/1/2013, Neutral Red): 18 µM
EC50 ([5]; Influenza A virus, H7N9, MDCK, Influenza A H7N9 A/Anhui/1/2013, Drug Assay Neutral Red): 3 µM
EC50 [6, 21]: 1.5 to 10 µM
CC50 ([7]; CC50 (μM) H1N1 California/07/2009): > 100 µM
CC50 ([7]; CC50 (μM) H3N2 Perth/16/2009): > 100 µM
EC90 [8]: 4.1 µM
EC90 ([8]; MDCK): 5.2 µM
EC50 ([8]; MDCK, Influenza A H1N1 A/Solomon Is./3/2006-M, Drug Assay Visual): 10 µM
EC50 ([8]; MDCK, Influenza A H1N1 California/04/2009-M, Visual): 10 µM
EC50 ([8]; MDCK, Influenza A H1N1 Solomon Is./3/2006-M, Visual): 10 µM
EC50 ([8]; MDCK, Influenza A H3N2 Victoria/3/75-M, Visual): 10 µM
EC50 ([8]; MDCK, Influenza A H5N1 A/Hong Kong/213/2003, Drug Assay Visual): 4.2 µM
EC50 [8, 22]: 10 µM
EC90 [8, 22]: 9 µM
EC50 ([8]; MDCK, Influenza A H5N1 Hong Kong/213/2003, Visual): 43 µM
EC50 ([8]; MDCK, Influenza A H7N9 A/Anhui/1/2013, Drug Assay Visual): 3.2 µM
EC50 ([8]; MDCK, Influenza B Sichuan/379/99-M, Visual): 10 µM
EC50 [9]: 8.5 µM and 6.8 µM and 10 µM
EC50 ([9]; Influenza A virus, H1N1, MDCK, read-out: EC50 (μM) H1N1 California/07/2009): 10 to 25 µM
EC50 [10, 21]: 10 to 25 µM
EC50 [11]: 9.3 µM and 9.6 µM and 8.9 µM
EC50 ([11]; MDCK): 9.8 µM
EC50 [12]: 5.6 µM
EC50 ([12]; Influenza A virus, H1N1, MDCK): 7.2 µM
EC50 [13]: 14.6 µM
EC90 [13]: > 100 µM
EC50 ([14]; Influenza A virus, H5N1, MDCK, Influenza A H5N1 A/Hong Kong/213/2003, Drug Assay Neutral Red): 3.6 µM
EC50 ([14]; Influenza A virus, H5N1, MDCK, Influenza A H5N1 Hong Kong/213/2003, Neutral Red): 39 µM
EC50 [15]: 5.6 µM
EC50 ([15]; Influenza A virus, H5N1, MDCK): 9.6 µM
EC50 [16]: 6.53 µM
EC90 [16]: 16.2 µM
EC50 [17]: 66.2 µM
EC90 [17]: > 100 µM
EC50 [18]: 4.8 µM

CCCC[C@H](NC(C)=O)C(=O)N[C@@H](CC(=O)O)C(=O)N[C@H](C(=O)N[C@@H](CC(N)=O)C(=O)N[C@]1(C)CCCCCCC=CCCC[C@@](C)(C(=O)N[C@@H](C)C(=O)N[C@@H](C)C(=O)N[C@@H](CCC(N)=O)C(N)=O)NC(=O)[C@H](C)NC(=O)[C@H](CC(C)C)NC(=O)[C@H](Cc2ccccc2)NC(=O)[C@H](CC(C)C)NC(=O)[C@H](CC(C)C)NC(=O)[C@H]([C@@H](C)O)NC1=O)C(C)C [SP-18] (Ac-[Nle]DVN[R8]TLLFLA[S5]AAQ-NH2; staple 5-12)
EC50 ([3]; Cytopathic effect/toxicity (Visual), MDCK cells): 1.5 to 10 µM
EC50 ([5]; read-out: EC50): > 50 µM
EC50 ([6]; Cytopathic effect/toxicity (Visual), MDCK cells, read-out: EC50 (μM) H3N2 Perth/16/2009): 25 to 50 µM
EC50 ([6]; Influenza A H3N2 Perth/16/2006 (so in the source), Drug Assay Visual, read-out: EC50): 14 µM
CC50 ([7]; CC50): > 50 µM
CC50 ([7]; CC50 (μM) H1N1 California/07/2009, Cell cytotoxicity (CC), run with H1N1 California/07/2009): > 100 µM
CC50 ([7]; CC50 (μM) H3N2 Perth/16/2009, Cell cytotoxicity (CC), run with H3N2 Perth/16/2009): > 100 µM
CC50 ([7]; CC50, MDCK cells, run with Influenza A H1N1 California/07/2009, Neutral Red): > 100 µM
CC50 ([7]; CC50, MDCK cells, run with Influenza A H1N1 California/07/2009, VYR/Neutral Red): > 100 µM
CC50 ([7]; CC50, MDCK cells, run with Influenza A H1N1 California/07/2009, Visual): > 100 µM
CC50 ([7]; CC50, MDCK cells, run with Influenza A H3N2 Perth/16/2009, Neutral Red): > 100 µM
CC50 ([7]; CC50, MDCK cells, run with Influenza A H3N2 Perth/16/2009, VYR/Neutral Red): > 100 µM
CC50 ([7]; CC50, run with Influenza A H1N1 A/Solomon Is./3/2006-M, Neutral Red): > 100 µM
CC50 ([7]; CC50, run with Influenza A H1N1 A/Solomon Is./3/2006-M, Visual): > 100 µM
CC50 ([7]; CC50, run with Influenza A H1N1 California/07/20/09 (so in the source), later run, Neutral Red): > 100 µM
CC50 ([7]; CC50, run with Influenza A H1N1 California/07/20/09 (so in the source), Visual/Neutral Red): > 100 µM
CC50 ([7]; CC50, run with Influenza A H1N1 California/07/2009, Neutral Red): > 100 µM
CC50 ([7]; CC50, run with Influenza A H3N2 Perth/16/2006 (so in the source), Neutral Red): > 100 µM
CC50 ([7]; CC50, run with Influenza A H3N2 Perth/16/2006 (so in the source), Visual): > 100 µM
CC50 ([7]; CC50, run with Influenza A H3N2 Perth/16/2009, last run, Neutral Red): > 100 µM
CC50 ([7]; CC50, run with Influenza A H3N2 Perth/16/2009, Visual/Neutral Red): > 100 µM
EC90 ([19]; Influenza A H1N1 California/07/2009): 6.4 µM
EC90 ([19]; Influenza A H3N2 Perth/16/2009): > 100 µM
EC50 ([8]; Influenza A H1N1 A/Solomon Is./3/2006-M, Drug Assay Visual, read-out: EC50): 13 µM
EC50 ([8]; read-out: EC50): > 50 µM
EC50 ([9]; Cytopathic effect/toxicity (Neutral red), MDCK cells, read-out: EC50 (μM) H1N1 California/07/2009): 1.5 to 10 µM
EC50 ([9]; Influenza A H1N1 California/07/20/09 (so in the source), later run, Drug Assay Neutral Red, read-out: EC50): 7 µM
EC90 ([9]; Influenza A H1N1 California/07/20/09 (so in the source), Drug Assay Visual/Neutral Red): 4 µM
EC50 ([9]; Influenza A H1N1 California/07/2009, Drug Assay Neutral Red, read-out: EC50): 3.8 µM
EC50 ([10]; Cytopathic effect/toxicity (Neutral red), MDCK cells, read-out: EC50 (μM) H3N2 Perth/16/2009): 25 to 50 µM
EC50 ([10]; Influenza A H3N2 Perth/16/2006 (so in the source), Drug Assay Neutral Red, read-out: EC50): 22 µM
EC50 ([10]; Influenza A H3N2 Perth/16/2009, last run, Drug Assay Neutral Red, read-out: EC50): > 100 µM
EC90 ([10]; Influenza A H3N2 Perth/16/2009, Drug Assay Visual/Neutral Red): > 100 µM
EC50 ([10]; Influenza A H3N2 Perth/16/2009, Neutral Red, read-out: EC50): 33 µM
EC50 [20]: 29 µM
EC50 ([14]; read-out: EC50): > 50 µM
